US20260130885A1, “ANTIMICROBIAL COMPOSITIONS, PHARMACEUTICAL COMPOSITIONS AND USE THEREOF” (priority 2022, published 2026)
In brackets after ≈: the same amount, converted by molar mass. Read-outs that look alike come from different tables or passages of the source.

Columns and labels:
S. aureus NCTC8325 = test: Antibacterial activity assay (MIC, broth microdilution); assay type: cell-based, Staphylococcus aureus; details: for MIC: Staphylococcus aureus
[1] = Antiproliferation assay (MTT); assay type: cell-based; details: human, read-out: CC50 of SC5005
Source text: The murine macrophage cell line RAW264.7 (BCRC) and human cervical epithelioid carcinoma cell line HeLa (BCRC) were maintained in Dulbecco's modified Eagle's medium (DMEM; Gibco-BRL) supplemented with 10% heat-inactivated FBS (Gibco-BRL). The human embryonic kidney cell line HEK-293 (BCRC) and the immortalized nontumorigenic keratinocyte cell line HaCaT (obtained from Dr. Yung-Chiy Chang, National Taiwan University, Taiwan) were maintained in Roswell Park Memorial Institute (RPMI; Gibco-BRL) medium supplemented with 10% heat-inactivated FBS. Cells were cultured in T-75 flasks at 37° C. in a 5% CO2 atmosphere.
The effects of SC5005 and DHA on the viability of mammalian cells were assessed using a 3-(4,5-dimethylthiazol-2-yl)-2,5-diphenyl-2H-tetrazolium bromide (MTT) assay in six replicates per treatment group. Briefly, cells were seeded into 96-well, flat-bottomed plates at 10^4 cells/well, cultured for 24 hours, and then exposed to SC5005 at concentrations ranging from 5-30 mg/L or the combination of SC5005 with designated concentrations of DHA for 24 hours. Controls were treated with DMSO and ethanol vehicles at concentrations equal to those for drug-treated cells. At the end of treatments, the medium was replaced with 0.5 g/L MTT-containing culture medium, and the cells were incubated in a CO2 incubator at 37° C. for an additional 1.5 hours. Supernatants were removed from the wells, and the reduced MTT dye was solubilized in DMSO followed by measuring the absorbance at 570 nm of each well using a VersaMax microplate reader (Molecular Devices, USA).

**Q.** Which results are given for `O=C(Nc1ccc(Cl)c(C(F)(F)F)c1)C(CCCl)C(=O)Nc1ccc(Cl)c(C(F)(F)F)c1` [SC5005]?
**A.** combination effect (S. aureus NCTC8325; MIC, +8 mg/L DHA): (Syn) (Synergy (Syn) was defined as an FICI≤0.5); MIC (S. aureus NCTC8325; NCTC8325, +8 mg/L DHA): 0.0019 ng/mL (≈ 0.00364 nM); MIC (S. aureus NCTC8325; NCTC8325, agent alone): 250 ng/mL (≈ 479 nM); CC50 at 24 h ([1]; HEK-293 cells, DHA 0 mg/L): 14.1 ± 1.4 µg/mL; CC50 at 24 h ([1]; HEK-293 cells, DHA 4 mg/L): 15.6 ± 0.6 µg/mL; CC50 at 24 h ([1]; HEK-293 cells, DHA 8 mg/L): 14.9 ± 1.6 µg/mL; CC50 at 24 h ([1]; HEK-293 cells, DHA 16 mg/L): 14 ± 0.8 µg/mL; CC50 at 24 h ([1]; HaCaT keratinocyte cells, DHA 0 mg/L): 18 ± 1.7 µg/mL; CC50 at 24 h ([1]; HaCaT keratinocyte cells, DHA 4 mg/L): 19.5 ± 1.7 µg/mL; CC50 at 24 h ([1]; HaCaT keratinocyte cells, DHA 8 mg/L): 20.5 ± 0.3 µg/mL; CC50 at 24 h ([1]; HaCaT keratinocyte cells, DHA 16 mg/L): 18.1 ± 1.6 µg/mL; CC50 at 24 h ([1]; HeLa cells, DHA 0 mg/L): 22.5 ± 0.7 µg/mL; CC50 at 24 h ([1]; HeLa cells, DHA 4 mg/L): 24.2 ± 3.6 µg/mL; CC50 at 24 h ([1]; HeLa cells, DHA 8 mg/L): 21.9 ± 1.6 µg/mL; CC50 at 24 h ([1]; HeLa cells, DHA 16 mg/L): 21.4 ± 1.4 µg/mL
